Series [1] concerns patients with history of PVR. In words: Side effects observed in the patients.
For series [2], the system named is patients with history of PVR. In words: Post void residual (PVR) before and after combination regimen in patients with urinary retention. The conditions noted are these: donepezil 5 or 10 added to respective regimens (alpha blocker, bethanechol); all patients. In kind it is in vivo, human. Here is the method:
(§1) The patients opted for immediate TURP and pharmacological therapy with alpha blocker, bethanechol, and donepezil if needed.
(§2) Bethanechol was then added to maximal recommended doses, according to package insert or Physician Desk Reference (PDR), which was 200 mg per day in divided doses. […] Bethanocol was either added at 75 mg five times per day to their existing regimen or patients were switched to betahnocol alone at 75 mg five time per day.
(§3) Subsequently donepezil was added in amounts ranging from 5 or 10 to their respective regimens.

In series [3] the test system is patients with history of PVR. In words: Voiding trial / ability to void under stepwise drug regimens. In kind it is in vivo, human. Here is the method: In an exemplary embodiment, patients with history of PVR of 100 ml to 2500 ml failed bother standard drug treatment and the Trans Urethral Resection of the Prostate (TURP) procedure or combinations of both treatment options.
as §1, §2, §3
While all patients in this series were males, females can also benefit from the present combination, particularly if no obstruction exists in their urinary tract.

The mark [4] stands for this setting: silodosin 8 mg added to tamsulosin.

Each structure is given as a SMILES string.

On to `CC(C[N+](C)(C)C)OC(N)=O` (centres unmarked) [bethanechol, carbamyl-methylcholine chloride], for which the side effects entry in series [1] (bethanechol at 200 mg per day or 375 mg per day, eight patients) is given as “no side effects”.
With `COc1cc2c(cc1OC)C(=O)C(CC1CCN(Cc3ccccc3)CC1)C2` (centres unmarked) [donepezil], the “reduction in PVR upon completion of the trial” value in series [2] is on record as “more than 75%”. In addition, the ability to void entry in series [3] (donepezil 5 or 10 added to respective regimens, each patient) is “able to void”. Further, the bladder emptying entry in series [3] (eight sequentially seen patients, donepezil with bethanechol) is given as “potentiated bethanechol to facilitate bladder emptying”. The frequency of voiding entry in series [3] (upon continuation of the regimen with donepezil, all patients) is “increasing frequency of voiding”.
Turning to `C[C@H](Cc1cc2c(c(C(N)=O)c1)N(CCCO)CC2)NCCOc1ccccc1OCC(F)(F)F` [silodosin], the side effects result in series [1] (setting [4]) is recorded as “no extra side effects”. Besides, the voiding trial result in series [3] (setting [4]) is on record as “failed to the voiding trial”.
As to `CCOc1ccccc1OCCN[C@H](C)Cc1ccc(OC)c(S(N)(=O)=O)c1` [tamsulosin], the voiding trial entry in series [3] (tamsulosin 0.4 mg or 0.8 mg per day) is on record as “failed a voiding trial”.
